Measured values: PubChem BioAssay (NCI)
“And” between values parts separate entries of the source, which are not always exact repeats. Equal values may be shown once.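 Where inhibition never reached the appropriate level, the endpoint shown equals the highest concentration tested. Otherwise, values were interpolated linearly from a five-concentration, 48-hour dose response in 96-well plates. At the GI50, growth is halved. The concentration for full growth arrest is given as TGI.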

Assays:
Experiment in all cases: NCI-60 cell line screen, 48 h
[1] = system: BT-549 breast
[2] = system: SK-MEL-5 melanoma
[3] = system: KM12 colon
[4] = system: UO-31 renal
[5] = system: CAKI-1 renal
[6] = system: NCI-H226 lung
[7] = system: A498 renal
[8] = system: IGROV1 ovarian
[9] = system: SK-OV-3 ovarian
[10] = system: UACC-257 melanoma
[11] = system: PC-3 prostate
[12] = system: HCC-2998 colon
[13] = system: TK-10 renal
[14] = system: SF-268 CNS
[15] = system: COLO 205 colon
[16] = system: MDA-MB-435
[17] = system: NCI-H23 lung
[18] = system: MDA-MB-231 breast
[19] = system: M14 melanoma
[20] = system: OVCAR-3 ovarian
[21] = system: DU-145 prostate
[22] = system: MCF7 breast
[23] = system: T-47D breast
[24] = system: NCI/ADR-RES ovarian
[25] = system: 786-0 renal
[26] = system: HL-60(TB) leukemia
[27] = system: SN12C renal
[28] = system: HOP-92 NSCLC
[29] = system: ACHN renal
[30] = system: SW-620 colon
[31] = system: OVCAR-4 ovarian
[32] = system: EKVX NSCLC
[33] = system: SK-MEL-28 melanoma
[34] = system: HCT-15 colon
[35] = system: SF-295 CNS
[36] = system: MALME-3M melanoma
[37] = system: OVCAR-5 ovarian
[38] = system: UACC-62 melanoma
[39] = system: HS 578T breast
[40] = system: NCI-H460 lung
[41] = system: MOLT-4 leukemia
[42] = system: K-562 leukemia
[43] = system: RPMI-8226 leukemia
[44] = system: CCRF-CEM leukemia
[45] = system: HCT-116 colon
[46] = system: SR leukemia
[47] = system: LOX IMVI melanoma
[48] = system: U251 CNS

CC(=O)N1N=C(c2ccc(C)cc2)CC1c1cn(-c2ccccc2)nc1-c1cccc(Nc2ccnc3cc(Cl)ccc23)c1 (centres undefined)
GI50 [1]: > 100000 nM | TGI [1]: > 100000 nM | GI50 [2]: > 100000 nM | TGI [2]: > 100000 nM | GI50 [3]: > 100000 nM | TGI [3]: > 100000 nM | GI50 [4]: > 100000 nM | TGI [4]: > 100000 nM | GI50 [5]: > 100000 nM | TGI [5]: > 100000 nM | GI50 [6]: > 100000 nM | TGI [6]: > 100000 nM | GI50 [7]: > 100000 nM | TGI [7]: > 100000 nM | GI50 [8]: > 100000 nM | TGI [8]: > 100000 nM | GI50 [9]: > 100000 nM | TGI [9]: > 100000 nM | GI50 [10]: > 100000 nM | TGI [10]: > 100000 nM | GI50 [11]: > 100000 nM | TGI [11]: > 100000 nM | GI50 [12]: > 100000 nM | TGI [12]: > 100000 nM | GI50 [13]: > 100000 nM | TGI [13]: > 100000 nM | GI50 [14]: > 100000 nM | TGI [14]: > 100000 nM | GI50 [15]: > 100000 nM | TGI [15]: > 100000 nM

CCCCCCCCCCCCCCCCCC[S+](C)CC (centres undefined)
GI50 [16]: 1630 nM | TGI [16]: 3470 nM | GI50 [17]: 1380 nM | TGI [17]: 3200 nM | GI50 [18]: 1670 nM | TGI [18]: 3830 nM | GI50 [19]: 1330 nM | TGI [19]: 2750 nM | GI50 [20]: 1080 nM | TGI [20]: 2330 nM | GI50 [21]: 1410 nM | TGI [21]: 2750 nM | GI50 [3]: 1140 nM | TGI [3]: 2450 nM | GI50 [22]: 1860 nM | TGI [22]: 4990 nM | GI50 [23]: 2360 nM | TGI [23]: 18800 nM | GI50 [4]: 1200 nM | TGI [4]: 2620 nM | GI50 [5]: 409 nM | TGI [5]: 1600 nM | GI50 [6]: 2080 nM | TGI [6]: 7580 nM | GI50 [24]: 11400 nM | TGI [24]: 37200 nM | GI50 [7]: 1710 nM | TGI [7]: 4360 nM | GI50 [25]: 1250 nM | TGI [25]: 2660 nM | GI50 [26]: 1170 nM | TGI [26]: 3800 nM | GI50 [27]: 1860 nM | TGI [27]: 4440 nM | GI50 [28]: 1380 nM | TGI [28]: 4500 nM | GI50 [29]: 1330 nM | TGI [29]: 2960 nM | GI50 [30]: 1460 nM | TGI [30]: 2890 nM | GI50 [31]: 1650 nM | TGI [31]: 4350 nM | GI50 [9]: 1860 nM | TGI [9]: 5450 nM | GI50 [32]: 1950 nM | TGI [32]: 4310 nM | GI50 [33]: 1670 nM | TGI [33]: 3710 nM | GI50 [34]: 2840 nM | TGI [34]: 16900 nM | GI50 [35]: 1200 nM | TGI [35]: 2590 nM | GI50 [12]: 1230 nM | TGI [12]: 2680 nM | GI50 [36]: 1380 nM | TGI [36]: 3450 nM | GI50 [37]: 1580 nM | TGI [37]: 4250 nM | GI50 [14]: 1180 nM | TGI [14]: 2880 nM | GI50 [15]: 1420 nM | TGI [15]: 2810 nM

COc1ccc2c(ccc3c(C(=O)NCCCN(C)CCCNC(=O)c4cn(C)c5c4ccc4cc(OC)ccc45)cn(C)c32)c1
TGI [17]: 2970 nM | TGI [19]: 2940 nM | TGI [21]: 3170 nM | TGI [38]: 3150 nM | TGI [3]: 2900 nM | TGI [39]: 4780 nM | TGI [4]: 3010 nM | TGI [40]: 2790 nM | TGI [7]: > 100000 nM | TGI [41]: > 100000 nM | TGI [29]: 3020 nM | TGI [31]: 3270 nM | TGI [42]: > 100000 nM | TGI [8]: 2860 nM | TGI [43]: 5890 nM | TGI [32]: 2920 nM | TGI [34]: 2600 nM | TGI [10]: 2970 nM | TGI [11]: 2880 nM | TGI [12]: 2970 nM | TGI [44]: > 100000 nM | TGI [14]: 3380 nM | TGI [15]: 4870 nM

O=C(Nc1cccc(-n2ccc3c(NC(=O)c4ccccc4)nccc32)c1)c1ccc(Cl)c(C(F)(F)F)c1
GI50 [45]: 136 nM and 513 nM | TGI [46]: 6710 nM and 15700 nM | GI50 [40]: 116 nM and 481 nM | TGI [6]: 10200 nM and > 100000 nM | GI50 [47]: 163 nM and 612 nM | TGI [42]: 6770 nM and 50900 nM | GI50 [48]: 125 nM and 759 nM | TGI [32]: 17100 nM and > 100000 nM | GI50 [11]: 143 nM and 950 nM
